# In patent publication US12599628B2, “Mitigation of cryptosporidiosis using hydrogen peroxide-generating compositions” (Purina Animal Nutrition, LLC, priority 2021, dated 2026):
# Tests used:
# C. parvum sporozoites = experiment: In vitro Cryptosporidium exposure: C. parvum sporozoites mixed with treatment, added to HCT-8 cells, qPCR of COWP gene; format: cell-based; conditions: all treatment concentrations (0.26, 2.08, 3.125, 6.25, 12.5, 18.75, 25, 450 mg/L); p<0.05; FIG. 1
# Experimental: (§1) Sodium percarbonate (0.26, 2.08, 3.125, 6.25, 12.5, 18.75, 25, or 450 mg/L) was tested for its ability to neutralize C. parvum sporozoites in host epithelial cells. HCT-8 (human ileocecal adenocarcinoma) cells were grown in a monolayer to 85-90% confluency in RPMI-1640 medium. Freshly excysted, washed C. parvum sporozoites were mixed with a sodium percarbonate treatment and then added to HCT-8 cells at 1.25×10^6 sporozoites per monolayer. The cells were incubated with the sporozoites for 2 hours at 10% CO2, 37° C. Cells were then washed and incubated in fresh media for 22 hours. Infected, untreated cells served as a control. After incubation, infected cells were harvested and DNA was isolated. The number of C. parvum were quantified using qPCR for the Cryptosporidium oocyst wall protein (COWP) gene.
# C. parvum oocysts = experiment: Mouse Cryptosporidium challenge, infection level in intestines by qPCR; format: in vivo, Cryptosporidium parvum; conditions: FIG. 2
# Experimental: Sodium percarbonate (“NPC”) at 0.26 mg/head, 12.5 mg/head, or 450 mg/head was tested in a Cryptosporidium challenge in mice. Eight-day-old ICR or CD-1 mice were divided into treatment (UA) and control (water) groups (n=10/group). Mice were infected with 1×10^4 C. parvum oocysts by oral inoculation. At the time of infection, and for every 12 hours thereafter, mice were treated with 100 μl per dose of NPC or water. A total of 8 doses per mouse were administered before termination of the challenge and collection of the intestines. The experiment was repeated twice (“Challenges I and II”). Infection levels were determined by qPCR against a known standard curve of C. parvum organisms.
# [1] = tested on: C. parvum oocysts (Iowa isolate); experiment: Clinical calf cryptosporidiosis trial (oocyst shedding, body weight, feces, clinical scores); format: in vivo, Cryptosporidium parvum; conditions: for daily number of oocysts shed compared to control group: FIG. 3; for decrease in weight over the course of the trial: FIG. 5
# [2] = tested on: C. parvum sporozoites excysted from oocysts shed by infected calves; experiment: Infectivity of Cryptosporidium oocysts shed by treated calves, excysted and tested on HCT-8 cells; format: cell-based, Cryptosporidium parvum; conditions: FIG. 8
# Experimental: as §1, with “HCT-8” for “Sodium percarbonate (0.26, 2.08, 3.125, 6.25, 12.5, 18.75, 25, or 450 mg/L) was tested for its ability to neutralize C. parvum sporozoites in host epithelial cells. HCT-8”
# Oocysts were collected from feces of calves in the control and treatment groups of Example 3 on multiple days during the duration of the study. The oocysts were excysted and analyzed to ensure equal excystation rates between the four treatment groups. HCT-8 cells were infected, harvested, and processed as described in Example 1.
structure (smiles),measurement,setting,value
O=C([O-])[O-].O=C([O-])[O-].OO.OO.OO.[Na+].[Na+].[Na+].[Na+] [sodium percarbonate],reduction in infection by C. parvum sporozoites of HCT-8 cells compared to untreated control,C. parvum sporozoites,significantly reduced infected
same,dose dependence of percent reduction in C. parvum infection,"C. parvum oocysts; mice, 0.26, 12.5, 450 mg/head",increased as treatment dose increased
same,percent reduction in C. parvum infection compared to control,"C. parvum oocysts; mice, 450 mg/head, 8 doses every 12 hours, oral",89.9%
same,daily number of oocysts shed compared to control group,"[1]; calves, 500 mg NPC BID in milk replacer, p<0.05",significantly fewer oocysts on Days 4-6 and 9-10 PI
same,reduction of mean total number of oocysts shed over the trial compared to control group,"[1]; calves, 500 mg NPC BID, Days 3-10 PI, p<0.05, FIG. 4",about 24%
same,daily number of oocysts shed compared to control group,"[1]; calves, 1000 mg NPC BID in milk replacer, p<0.05",significantly fewer oocysts on Days 6 and 10 PI
same,decrease in weight over the course of the trial,"[1]; infected calves, H-NPC (1000 mg NPC BID)",3.6%
same,decrease in weight over the course of the trial,"[1]; infected calves, L-NPC (500 mg NPC BID)",2.5%
same,weight loss compared to the control group,"[1]; infected calves, both NPC treatment groups (500 and 1000 mg BID)",tended to lose less weight
same,ability of shed oocysts to infect HCT-8 cells compared with oocysts from untreated calves,[2]; oocysts from calves treated with high-dose (1000 mg BID) sodium percarbonate,reduced ability to infect HCT-8 cells
same,ability of shed oocysts to infect HCT-8 cells compared with oocysts from untreated calves,[2]; oocysts from calves treated with low-dose (500 mg BID) sodium percarbonate,reduced ability to infect HCT-8 cells
